{
  "source": "patent US6949356B1",
  "about": "“Methods for improving secondary metabolite production in fungi” (Microbia, Inc., priority 1999, dated 2005)",
  "tested_on": "S. cerevisiae strain 22409",
  "test": "Lovastatin resistance test: yeast transformants spotted to SC-URA agar containing different concentrations of lovastatin (FIG. 1)",
  "format": "cell-based, Saccharomyces cerevisiae",
  "description": "These genes are predicted to encode proteins, denoted by Genbank accession numbers AAD34558 (hereafter referred to as PUMP1) and AAD34564 (hereby referred to as PUMP2), that are members of the MFS class of transporters. As described above, some MFS transporters are known to confer resistance to toxic compounds. PUMP1 and PUMP2 were tested for their ability to confer resistance to otherwise toxic levels of lovastatin when expressed in the fungus S. cerevisiae.\nThe polyA+ fraction of the A. terreus total RNA was isolated using Oligotex beads (Qiagen Inc.). Purified polyA+ RNA (5 μg) was used to generate complementary DNA (cDNA) using Superscript Reverse Transcriptase (Gibco BRL, 9800 Medical Center Drive, PO Box 6482, Rockville, Md. 20849) according to the instructions of the manufacturer. The cDNA was then used to isolate and clone PUMP1 and PUMP2 gene sequences using the polymerase chain reaction (PCR) and Gateway (Life Technologies) Cloning Technology (U.S. Pat. No. 5,888,732). Oligonucleotide sequences used for PCR were 5′-[…]-3′ (SEQ ID NO: 7) and 5′-[…]-3′ (SEQ ID NO: 8) for PUMP1. Oligonucleotide sequences used for PUMP2 PCR were 5′-[…]-3′ (SEQ ID NO: 9) and 5′-[…]-3′ (SEQ ID NO: 10). The resultant plasmids, MB1333 and MB1334, were designed to express PUMP1 and PUMP2, respectively, under control of the S. cerevisiae TEF1 promoter. The plasmids carry a functional URA3 gene to allow for selection of the plasmid on media lacking uracil in a ura3 mutant strain. These plasmids also contained a 2-micron origin for high-copy replication in yeast. […] Environ. Microbiol. 63: 33414 (1997) as pRH127-3, that expresses a soluble form of HMG CoA reductase under control of the yeast GPD1 promoter and is known to confer resistance to increased levels of lovastatin (Donald et al., Appl. Environ. Microbiol. 63: 3341-4 (1997)).\nMB1333, MB1334, MB969 and MB1344 were transformed into the yeast strain 22409 (Research Genetics, USA) using standard transformation methods for S. cerevisiae (Biotechniques, 1992, 13(1): 18). Strain 22409 is derived from the S288c strain background of S. cerevisiae, and its complete genotype is as follows: MATa/α, his3Δ1/his3Δ1, leu2Δ1/leu2Δ0, ura3Δ0/ura3Δ0, LYS2/lys2Δ0, MET15/met15Δ0 pdr5::G418/PDR5. Transformants were grown overnight at 30° C. in synthetic complete media lacking uracil (SC-U) to maintain selection for the plasmid. Cultures were diluted 1:10 in sterile water, and 5 μl of each strain was spotted to SC-URA agar containing different concentrations of lovastatin as shown in FIG. 1.",
  "data": [
    {"molecule": "CC[C@H](C)C(=O)O[C@H]1C[C@@H](C)C=C2C=C[C@H](C)[C@H](CC[C@@H]3C[C@@H](O)CC(=O)O3)[C@H]21", "note": "[lovastatin]", "values": [
      {"measurement": "growth inhibition by lovastatin", "setting": "positive control strain carrying MB1344 (soluble fragment of HMG CoA reductase overexpressed), highest concentration of lovastatin tested, 150 μg/ml", "value": "no obvious growth inhibition"},
      {"measurement": "growth inhibition by lovastatin", "setting": "strain expressing PUMP2 (MB1334), lowest concentration of lovastatin tested, 50 μg/mL", "value": "growth inhibition"},
      {"measurement": "growth inhibition by lovastatin", "setting": "strain harboring MB1333 (expressing PUMP1), highest concentration of lovastatin tested, 150 μg/ml", "value": "no obvious growth inhibition"},
      {"measurement": "growth inhibition by lovastatin", "setting": "vector-only control strain (MB969), lowest concentration of lovastatin tested, 50 μg/mL", "value": "growth inhibition"}
    ]}
  ]
}
